Where a name gives a salt, the structure may show the parent alone. Read-outs that look alike come from different tables or passages of the source.
Assays:
MK801 Stereotypy = experiment: MK-801 Stereotypy in Mice; type: in vivo; conditions: Mus musculus, mice, MK-801 0.2 mg/kg, read-out: Antagonism of MK801 Stereotypy % Inhib. @ 20 mg/kg (route)
Method: Mk-801 dose-dependently induces characteristic stereotypy marked by locomotion and falling behavior. This MK-801 induced behavior can be antagonized by novel neuroleptic agents. This assay can also assess time course effects following drug administration.
CD-1 or C57 male mice are individually placed in activity boxes (8 mice/drug) and allowed to acclimate for 60 minutes. The mice are then administered test compounds either i.p., s.c., or p.o., at 15, 30, or 60 minutes prior to MK-801 (0.2 mg/kg) administration. Mice are observed for the presence of locomotion and falling behaviors 15 minutes following MK-801. For the duration of action studies the test compounds are administered i.p., s.c., or p.o., at 30, 60, 120, 180, and 240 minutes prior to MK-801 administration.

[1] = molecular target: T1, human D4 receptor (D4.2 sub-type) (Homo sapiens, UniProt P21917, DEL265-296); experiment: D4 receptor binding assay (3H-spiperone displacement); conditions: for Ki: 3H-spiperone 0.25 nM, membranes of HEK 298 cells with human D4.2, Cheng-Prusoff from IC50, read-out: D4 RBA Ki; for inhibition at 1 µM: 1 μM test compound, inhibition of 3H-spiperone binding, read-out: D4 RBA % Inhib. @ 1 μM
T1 construct: expressed in transfected cells
T1 sequence (P21917 with tags, fused parts or gaps DEL265-296): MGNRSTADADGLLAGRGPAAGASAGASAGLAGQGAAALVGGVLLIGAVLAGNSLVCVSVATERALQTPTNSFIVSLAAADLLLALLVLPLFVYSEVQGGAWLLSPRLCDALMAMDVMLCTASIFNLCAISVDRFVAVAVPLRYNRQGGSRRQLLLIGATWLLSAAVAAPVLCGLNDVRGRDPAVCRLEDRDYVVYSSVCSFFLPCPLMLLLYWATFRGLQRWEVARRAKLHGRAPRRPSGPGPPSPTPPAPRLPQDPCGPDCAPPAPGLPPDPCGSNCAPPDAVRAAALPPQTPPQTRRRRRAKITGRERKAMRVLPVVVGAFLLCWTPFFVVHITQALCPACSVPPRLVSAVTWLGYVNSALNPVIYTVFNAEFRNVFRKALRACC
Method: D4 receptor-binding affinities of the compounds were evaluated according to their ability to reduce binding of ^3H-spiperone as compared to the reference compound clozapine. The potency of the test compound to reduce ^3H-spiperone binding directly correlated to its binding affinity for the receptor.
[…] (human embryonic kidney) cells stably transfected with human D4 receptor (D4.2 sub-type) were grown in NUNC cell factories for 5 days (75% confluency) without a media change and removed with versene (approximately 19 mg of cells per cell factory tray). The cells were then centrifuged in a Sorval centrifuge for 10 min, 5000 rpm (GS3 rotor) and the pellets quickly frozen in liquid nitrogen and stored at −80° C. until used in binding assay. When used in the assay, cells were thawed on ice for 20 min and then 10 mL of incubation buffer (50 mM Tris, 1 mM EDTA, 4 mM MgCl2, 5 mM KCl, 1.5 mM CaCl2, 120 mM NaCl, pH 7.4) was added. The cells were then vortexed to resuspend pellet and homogenized with a Kinematica, CH-6010 Kriens-LU, homogenizer for 15 seconds at setting 7. Concentration of receptor protein was determined using the Pierce BCA assay.
The incubation was started by the addition of 100 μl (50 μg protein) membrane homogenate to a solution of 300 μl incubation buffer and 100 μl (0.25 nM final conc.) ^3H-spiperone (90 Ci/mmol, Amersham, diluted in borosilicate glass vial) in 96-well polypropylene plates (1 mL per well). The plates were vortexed and incubated at room temperature for 90 minutes. The binding reaction was stopped by filtering using a Packard Harvester. The samples were filtered under vacuum over glass fibre filter plates (Whatman GF/B) presoaked for 2 hours in 0.3% polyethylenimine (PEI) in 50 mM Tris buffer (pH 7.4). The filters were then washed 6 times with 7 mL ice cold 50 mM Tris buffer (pH 7.4). The filter plates were dried overnight and 35 μl of Microscint-O (Packard) was added. The plates were sealed and counted in the Packard Top Count (3 minutes per well).
The incubation was started by the addition of 100 μl (50 μg protein) membrane homogenate to a solution of 200 μl incubation buffer, 100 μl ^3H-spiperone (90 Ci/mmol, Amersham, diluted in borosilicate glass vial to 0.25 nM final conc.) and 100 μl (30 μM final conc.) of fresh dopamine (Research Biochemicals Inc., light protected and dissolved in incubation buffer) in 96-well polypropylene plates (1 mL per well). The plates were vortexed and incubated at room temperature for 90 minutes at which time the binding reaction was stopped by filtering. The filters were washed and counted using the same procedure as in the total binding assay described above to give the nonspecific binding value (NSB).
The incubation was started by the addition, in 96-well polypropylene plates (1 mL per well), of 100 μl (50 μg protein) membrane homogenate to a solution of 200 μl incubation buffer, 100 μl (0.25 nM final conc.) ^3H-spiperone (90 Ci/mmol, Amersham, diluted in borosilicate glass vial) and 100 μl of test compound that was prepared from 1 mM stock dissolved in DMSO and stored at −20° C. in polypropylene cryogenic storage vials until dilution in incubation buffer in 96-well polypropylene plates. The plates were vortexed and incubated at room temperature for 90 minutes at which time the binding reaction was stopped by filtering. The filters were washed and counted using the same procedure as in the total binding assay described above to give the displacement binding value (BD).
The test compounds were initially assayed at 1 and 0.1 μM and then at a range of concentrations chosen such that the middle dose would cause about 50% inhibition of ^3H-spiperone binding. Specific binding in the absence of test compound (B0) was the difference of total binding (BT) minus non-specific binding (NSB) and similarly specific binding (in the presence of test compound) (B) was the difference of displacement binding (BD) minus non-specific binding (NSB). […]

Compound: O[C@@H](COc1cccc(-c2noc3ccsc23)c1)CN1CCN(Cc2ccc3c(c2)OCO3)CC1 (as salt: hydrochloride) [Example 51, (2R)-1-(4-benzo[1,3]dioxol-5-ylmethyl-piperazin-1-yl)-3-(3-thieno[2,3-d]isoxazol-3-yl-phenoxy)propan-2-ol]
- melting point: 225 to 227 °C

Compound: C[C@](O)(CNCc1ccccc1)COc1cccc(-c2noc3ccsc23)c1 [Compound 3, (2S)-(+)-1-benzylamino-2-methyl-3-(3-thieno[2,3-d]isoxazol-3-yl-phenoxy)propan-2-ol maleate]
- inhibition in vivo at 20 mg/kg (MK801 Stereotypy; 20 mg/kg ip): 37.5%
- Ki [1]: 3.3 nM

Compound: C[C@@](O)(CNCc1ccccc1)COc1cccc(-c2noc3ccsc23)c1 [Compound 4, (2R)-(−)-1-benzylamino-2-methyl-3-(3-thieno[2,3-d]isoxazol-3-yl-phenoxy)propan-2-ol maleate]
- inhibition in vivo at 20 mg/kg (MK801 Stereotypy; 20 mg/kg ip): 12.5%
- Ki [1]: 37.7 nM

Compound: O[C@H](CNCc1cccs1)COc1cccc(-c2noc3ccsc23)c1 [Compound 6, (2R)-1-(3-thieno[2,3-d]isoxazol-3-yl-phenoxy)-3-[(thiophen-2-ylmethyl)amino]propan-2-ol L-tartrate]
- inhibition in vivo at 20 mg/kg (MK801 Stereotypy; 20 mg/kg ip): 25%
- Ki [1]: 12.6 nM

Compound: O[C@H](CNCc1ccsc1)COc1cccc(-c2noc3ccsc23)c1 [Example 9]
- inhibition in vivo at 20 mg/kg (MK801 Stereotypy; 20 mg/kg ip): 12%
- Ki [1]: 7.6 nM

Compound: O[C@@H](COc1cccc(-c2noc3ccsc23)c1)CN1CCN(c2n[nH]c3cc(F)ccc23)CC1 [Example 11, (2R)-1-[4-(6-fluoro-1H-indazol-3-yl)-piperazin-1-yl]-3-(3-thieno[2,3-d]isoxazol-3-yl-phenoxy)-propan-2-ol]
- melting point: 97 to 99 °C

Compound: COc1ccc2[nH]nc(N3CCN(C[C@@H](O)COc4cccc(-c5noc6ccsc56)c4)CC3)c2c1 [Example 12, (2R)-1-[4-(5-methoxy-1H-indazol-3-yl)-piperazin-1-yl]-3-(3-thieno[2,3-d]isoxazol-3-yl-phenoxy)-propan-2-ol]
- melting point: 84 to 86 °C

Compound: C[C@@](O)(CNCc1ccc(F)cc1)COc1cccc(-c2noc3ccsc23)c1 [Example 15]
- inhibition in vivo at 20 mg/kg (MK801 Stereotypy; 20 mg/kg sc): 50%
- Ki [1]: 11 nM

Compound: OC(CNC[C@@H](O)COc1cccc(-c2noc3ccsc23)c1)c1ccccc1 (stereo partly drawn) [Example 27]
- inhibition in vivo at 20 mg/kg (MK801 Stereotypy; 20 mg/kg sc): 75%
- Ki [1]: 131 nM

Compound: C[C@@](O)(CNCc1cccs1)COc1cccc(-c2noc3ccsc23)c1.O=C(O)/C=C\C(=O)O [Example 27]
- melting point: 120 to 121 °C

Compound: O[C@@H](COc1cccc(-c2noc3ccsc23)c1)CN1CCN(c2ccccc2F)CC1 [Example 44, (2R)-1-[4-(2-fluorophenyl)piperazin-1-yl]-3-(3-thieno[2,3-d]isoxazol-3-yl-phenoxy)-propan-2-ol]
- melting point: 96 to 99 °C

Compound: O[C@@H](COc1cccc(-c2noc3ccsc23)c1)CN1CCN(c2ccccc2Cl)CC1 [Example 46, (2R)-1-[4-(2-chlorophenyl)piperazin-1-yl]-3-(3-thieno[2,3-d]isoxazol-3-yl-phenoxy)-propan-2-ol]
- melting point: 83 to 86 °C

Compound: O[C@@H](COc1cccc(-c2noc3ccsc23)c1)CN1CCN(c2cccc(Cl)c2)CC1 [Example 47, (2R)-1-[4-(3-chlorophenyl)piperazin-1-yl]-3-(3-thieno[2,3-d]isoxazol-3-yl-phenoxy)-propan-2-ol]
- melting point: 118 to 120 °C

Compound: COc1ccc(N2CCN(C[C@@H](O)COc3cccc(-c4noc5ccsc45)c3)CC2)cc1 [Example 48, (2R)-1-[4-(4-methoxyphenyl)piperazin-1-yl]-3-(3-thieno[2,3-d]isoxazol-3-yl-phenoxy)-propan-2-ol]
- melting point: 110 to 113 °C

Compound: O[C@@H](COc1cccc(-c2noc3ccsc23)c1)CN1CCN(c2ccccc2)CC1 [Example 49, (2R)-1-(4-phenylpiperazin-1-yl)-3-(3-thieno[2,3-d]isoxazol-3-yl-phenoxy)propan-2-ol]
- melting point: 127 to 129 °C

Compound: N#Cc1ccccc1N1CCN(C[C@@H](O)COc2cccc(-c3noc4ccsc34)c2)CC1 [Example 50, 2-{4-[(R)-2-hydroxy-3-(3-thieno[2,3-d]isoxazol-3-yl-phenoxy)-propyl]piperazin-1-yl}benzonitrile]
- melting point: 87 to 89 °C

Compound: O[C@@H](COc1cccc(-c2noc3ccsc23)c1)CN1CCN(c2ccccc2C(F)(F)F)CC1 [Example 52, (2R)-1-(3-thieno[2,3-d]isoxazol-3-yl-phenoxy)-3-[4-(2-trifluoromethylphenyl)-piperazin-1-yl]propan-2-ol]
- melting point: 77 to 79 °C

Compound: O[C@@H](COc1cccc(-c2noc3ccsc23)c1)CN1CCN(c2nsc3ccccc23)CC1 [Example 76]
- Ki [1]: 6 nM

Compound: O[C@@H](COc1cccc(-c2noc3ccsc23)c1)CN1CCC(O)(c2ccc(Cl)cc2)CC1 [Example 90]
- inhibition at 1 µM [1]: 59%

Compound: O[C@H](CNCC1CCCCC1)COc1cccc(-c2noc3ccsc23)c1 [Example 92]
- inhibition at 1 µM [1]: 94%

Compound: O[C@H](CNC1CCc2ccccc21)COc1cccc(-c2noc3ccsc23)c1 (stereo partly drawn) [Example 93]
- Ki [1]: 16 nM

Compound: O[C@@H](COc1cccc(-c2noc3ccsc23)c1)CN1CCCCC1 [Example 98]
- inhibition at 1 µM [1]: 85%

Compound: Cn1nc(-c2cccc(OC[C@H](O)CN3CCc4ccccc4C3)c2)c2sccc21 [Example 99]
- inhibition at 1 µM [1]: 95%

Compound: Cn1nc(-c2cccc(OC[C@H](O)CN3CCN(c4ccccc4)CC3)c2)c2sccc21 [Example 100]
- inhibition at 1 µM [1]: 90%

Compound: Cn1nc(-c2cccc(OC[C@H](O)CN3CCN(c4ncccn4)CC3)c2)c2sccc21 [Example 101]
- inhibition at 1 µM [1]: 89%

Compound: Cn1nc(-c2cccc(OC[C@H](O)CN3CCC(C(=O)c4ccc(F)cc4)CC3)c2)c2sccc21 [Example 102]
- inhibition at 1 µM [1]: 97%

Compound: Cn1nc(-c2cccc(OC[C@H](O)CN3CCC(n4c(=O)[nH]c5ccccc54)CC3)c2)c2sccc21 [Example 103]
- inhibition at 1 µM [1]: 91%

— patent US7125903B1 (Aventis Pharmaceuticals Inc., priority 1999, dated 2006)
